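The compound was tested at five concentrations on cells cultured in 96-well plates, with a 48-hour exposure period. TGI: total growth inhibition.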

Here are results for 14 molecules from PubChem BioAssay (NCI).

What all share (assay): NCI-60 cell line screen, 48 h
Assay [1] relates to DU-145 prostate.
The subject of assay [2] is HT29 colon.
The subject of assay [3] is IGROV1 ovarian.
Assay [4] relates to MOLT-4 leukemia.
Assay [5] relates to NCI-H460 lung.
For assay [6], the system named is RPMI-8226 leukemia.
The subject of assay [7] is SK-MEL-2 melanoma.
Assay [8] relates to SK-MEL-28 melanoma.
The test system of assay [9] is MCF7 breast.
Assay [10] has as its system SNB-19 CNS.

`O=C(Nc1ccccc1)N1CCN(C(=O)Nc2ccccc2)C1=S`: the TGI in assay [1], in assay [2], in [3], in [4], in assay [5] and in [6] was more than 100 µM throughout. The TGI in assay [7] and in assay [8] was more than 100 µM in each case.
For `COC1/C=C/C(C)C(O)CC(O)/C=C/C(C)C(C(C)C(OC)C(C)CCC(=O)C(C)C(C/C=C/N(C)C=O)OC)OC(=O)/C=C/C=C(\C)CC(OC)CC2=CC(=O)O[C@@H](C(C)C(OC)C1)[C@H]2O` (stereo not given in full), the TGI in [1] was found to be 4.09 µM; in assay [2], 0.741 µM; in [3], 0.0689 µM; in assay [9], 0.0909 µM; in [4] it was 28.2 µM; in assay [5] it was 0.162 µM. Further, the results for the TGI in assay [6], in assay [8] and in assay [10] were 0.124 µM, 0.155 µM and 0.155 µM, respectively.
In the case of `N#Cc1c(-c2ccc([N+](=O)[O-])cc2)c(C#N)c(=O)n(NS(=O)(=O)c2ccccc2)c1S`, the TGI in assay [2] was more than 100 µM; in [3], 48.3 µM; in assay [9], more than 100 µM; in [4] it was 46.5 µM; in [5], more than 100 µM; in [6], 44.6 µM. For the same molecule, the TGI in assay [7] is 60.8 µM; in [8] it was more than 100 µM; in assay [10] it was more than 100 µM.
On to `CC(=O)C(=Cc1cn(C)c(=O)n(C)c1=O)C(C)=O`, for which the TGI in assay [2] was determined as 278 µM; in assay [3] it was 470 µM; in assay [9], 625 µM; in assay [4], 382 µM; in assay [5], 231 µM; in assay [6] it was 284 µM. Further, the values for the TGI in assay [7], in assay [8] and in assay [10] were 255 µM, 209 µM and 414 µM, respectively.
On to `C[C@]12CC[C@H]3[C@@H](CC=C4C[C@@H](N5CCCC5)CC[C@@]43C)[C@@H]1C[C@H](N1CCCCC1)[C@@H]2O`, for which the TGI in assay [1], in assay [2], in assay [3], in assay [9], in assay [4] and in [5] was more than 100 µM throughout. Further, the results for the TGI in assay [6], in assay [8] and in assay [10] were 85.7 µM, more than 100 µM and more than 100 µM, respectively.
For the molecule `COC1CC(C)(NC(=O)C(F)(F)F)C2OC(c3ccccc3)OCC2O1` (stereo not given), the TGI in [1], in assay [2], in assay [3], in assay [9], in [4] and in [5] was more than 100 µM in each case. For the same molecule, the TGI in assay [6], in assay [8] and in assay [10] was more than 100 µM each time.
On to `COP(=O)(OC)OCN(C)CC/C=C(\C)CC/C=C(\C)CCC=C(C)C`, for which the TGI in [3] is 25.8 µM; in assay [9], 28.5 µM; in [4] it was 28.9 µM; in [5] it was 23.9 µM; in [6] it was 28.3 µM; in assay [7] it was 28.2 µM. The TGI in assay [8] is 32.6 µM; in assay [10], 25.6 µM.
Regarding `COC(=O)C1=C(CCCCO[Si](C)(C)C(C)(C)C)NC(=O)N2[C@H](CCOCc3ccccc3)CC[C@@H]12`, the TGI in assay [1], in assay [9], in assay [4], in assay [5], in [6] and in assay [7] was more than 100 µM in each case. The TGI in assay [8] and in [10] was more than 100 µM each time.
With `CC1=C(C)C(=O)C(C2=CC(=O)c3ccccc3C2=O)=C(C2=CC(=O)c3ccccc3C2=O)C1=O`, the TGI in [1] was 12.5 µM; in assay [2] it was 28.7 µM; in assay [3], 29.8 µM; in assay [4], more than 36.2 µM; in assay [5], 25.4 µM; in [7], 24.4 µM. Besides, the TGI in assay [8] was 23.5 µM; in assay [10], more than 36.5 µM.
As for `O=c1c2cc(Br)cc(Br)c2[nH]c(=S)n1-c1ccc(N=Nc2ccc(O)c3cccnc23)cc1`, the TGI in [1] is more than 100 µM; in [2], more than 100 µM; in assay [3], 34.5 µM; in assay [9] it was 25.9 µM; in [4], more than 100 µM; in [6], more than 100 µM. In addition, the TGI was more than 100 µM in [7], more than 100 µM in [8] and 61.2 µM in assay [10].
For the molecule `C[s+]1c2ccccc2c2ccccc21`, the TGI in assay [2], in assay [3], in assay [4], in [5], in [6] and in [7] was more than 100 µM throughout. The TGI in assay [8] and in [10] was more than 100 µM throughout.
For the molecule `COc1cc2c(/C=C3/C(=O)Nc4ccccc43)c(Cl)n(Cc3ccc(Cl)cc3)c2cc1C`, the TGI is 1.07 µM in [1]; 16 µM in assay [3]; 31.8 µM in assay [9]; 0.627 µM in assay [4]; 2.3 µM in [5]; 0.925 µM in [6]. The TGI in [7] came out at 17.3 µM; in assay [8], 22.9 µM; in [10], 15.8 µM.
For the molecule `CC(C)CCCC(C)[C@H]1CCC(C2C[C@@H](O)[C@@H]3CC(O)[C@@H](O)C[C@]3(CO)C2=O)[C@]1(C)CCO` (stereo not given in full), the TGI was 36.3 µM in assay [2]; 42.4 µM in [3]; 20.4 µM in assay [9]; 22.4 µM in assay [4]; 45.2 µM in assay [5]; more than 100 µM in assay [6]. Further, the TGI in assay [7] was found to be 39.7 µM; in assay [8], 40.5 µM; in assay [10] it was 96.3 µM.
Consider `CC1OC(OC2C(O[C@H]3CC[C@@]4(C)C(=CC[C@H]5[C@@H]6C[C@@H]7O[C@]8(CC[C@@H](C)CO8)[C@@H](C)[C@@H]7[C@@]6(C)CC[C@@H]54)C3)OC(CO)C(O)C2OC2OC(CO)C(O)C(O)C2O)C(O)C(O)C1O` (stereo not given in full), for which the TGI is 4.09 µM in assay [1]; more than 100 µM in assay [2]; 3.3 µM in assay [3]; 4.55 µM in [9]; more than 23.3 µM in assay [4]; 3.45 µM in [7]. Moreover, the TGI in assay [8] came to 3.68 µM; in [10], 3.46 µM.
